Measurements from patent publication US20240299300A1, “LIPOSOME VITAMIN C PREPARATION” (priority 2023, published 2024).

Tested on: H9 cells, a human T-cell line
Experiment: Vitamin C uptake in H9 T-cells
Format: cell-based
Conditions: 50 μM
Protocol: At the times indicated in FIG. 13, cells were harvested and measured for vitamin C and protein content. The cellular vitamin C levels of the cells were measured.

Structure (SMILES): O=C1O[C@H]([C@@H](O)CO)C(O)=C1O [nonliposomal vitamin C, ascorbic acid]
- cellular vitamin C level (peak) (approximately two hours): 20 nmol/mg protein
- cellular vitamin C level (fifteen minutes): 6±1.4 nmol/mg protein
